Reference: the NIST ThermoML archive (doi:10.1021/je050031f)

Columns and labels:
[1] = xn = mol fraction of the nth substance listed; conditions: 100.8 kPa, Liquid
[2] = refractive index (Na D-line) (dimensionless); xn = mol fraction of the nth substance listed; conditions: 100.8 kPa, Liquid, Standard Abbe refractometry

CC1CCCCC1 [methylcyclohexane] + CCO
Conditions | mass density, 288.15 K [kg/m3] | mass density, 298.15 K [kg/m3] | mass density, 308.15 K [kg/m3] | refractive index, 288.15 K | refractive index, 298.15 K | refractive index, 308.15 K | viscosity, 288.15 K [mPa·s] | viscosity, 298.15 K [mPa·s] | viscosity, 308.15 K [mPa·s]
[1], x2 = 0 | 773.4 | 765 | 756.3 | – | – | – | 0.784 | 0.685 | 0.6
[1], x2 = 0.05 | 773.4 | 764.6 | 755.8 | – | – | – | 0.771 | 0.674 | 0.589
[1], x2 = 0.1 | 773.4 | 764.7 | 755.7 | – | – | – | 0.769 | 0.67 | 0.588
[1], x2 = 0.15 | 773.7 | 764.8 | 755.8 | – | – | – | 0.77 | 0.667 | 0.585
[1], x2 = 0.2 | 774 | 765.1 | 756.1 | – | – | – | 0.779 | 0.673 | 0.588
[1], x2 = 0.25 | 774.3 | 765.4 | 756.4 | – | – | – | 0.793 | 0.681 | 0.593
[1], x2 = 0.3 | 774.7 | 765.8 | 756.8 | – | – | – | 0.811 | 0.694 | 0.602
[1], x2 = 0.35 | 775.1 | 766.2 | 757.2 | – | – | – | 0.831 | 0.707 | 0.612
[1], x2 = 0.4 | 775.7 | 766.8 | 757.8 | – | – | – | 0.853 | 0.722 | 0.623
[1], x2 = 0.45 | 776.3 | 767.4 | 758.4 | – | – | – | 0.877 | 0.739 | 0.635
[1], x2 = 0.5 | 777 | 768.1 | 759.1 | – | – | – | 0.902 | 0.757 | 0.65
[1], x2 = 0.55 | 777.8 | 768.9 | 759.9 | – | – | – | 0.928 | 0.778 | 0.666
[1], x2 = 0.6 | 778.7 | 769.8 | 760.8 | – | – | – | 0.955 | 0.799 | 0.683
[1], x2 = 0.65 | 779.6 | 770.8 | 761.8 | – | – | – | 0.983 | 0.82 | 0.7
[1], x2 = 0.7 | 780.8 | 772 | 763.1 | – | – | – | 1.012 | 0.843 | 0.72
[1], x2 = 0.75 | 782.1 | 773.4 | 764.5 | – | – | – | 1.043 | 0.867 | 0.74
[1], x2 = 0.8 | 783.6 | 774.9 | 766 | – | – | – | 1.077 | 0.894 | 0.762
[1], x2 = 0.85 | 785.4 | 776.7 | 767.9 | – | – | – | 1.114 | 0.926 | 0.79
[1], x2 = 0.9 | 787.7 | 779 | 770.2 | – | – | – | 1.164 | 0.971 | 0.828
[1], x2 = 0.95 | 790.4 | 781.8 | 773 | – | – | – | 1.225 | 1.021 | 0.867
[2], x2 = 0 | – | – | – | 1.42578 | 1.42053 | 1.41537 | – | – | –
[2], x2 = 0.05 | – | – | – | 1.42405 | 1.41871 | 1.41358 | – | – | –
[2], x2 = 0.1 | – | – | – | 1.42223 | 1.4169 | 1.41176 | – | – | –
[2], x2 = 0.15 | – | – | – | 1.42037 | 1.41505 | 1.40993 | – | – | –
[2], x2 = 0.2 | – | – | – | 1.41843 | 1.41313 | 1.40802 | – | – | –
[2], x2 = 0.25 | – | – | – | 1.41639 | 1.41112 | 1.40603 | – | – | –
[2], x2 = 0.3 | – | – | – | 1.41426 | 1.40902 | 1.40396 | – | – | –
[2], x2 = 0.35 | – | – | – | 1.41199 | 1.40679 | 1.40175 | – | – | –
[2], x2 = 0.4 | – | – | – | 1.4096 | 1.40442 | 1.39942 | – | – | –
[2], x2 = 0.45 | – | – | – | 1.40706 | 1.40192 | 1.39695 | – | – | –
[2], x2 = 0.5 | – | – | – | 1.40437 | 1.39927 | 1.39433 | – | – | –
[2], x2 = 0.55 | – | – | – | 1.4015 | 1.39644 | 1.39153 | – | – | –
[2], x2 = 0.6 | – | – | – | 1.39844 | 1.39343 | 1.38856 | – | – | –
[2], x2 = 0.65 | – | – | – | 1.39516 | 1.3902 | 1.38538 | – | – | –
[2], x2 = 0.7 | – | – | – | 1.39166 | 1.38674 | 1.38197 | – | – | –
[2], x2 = 0.75 | – | – | – | 1.38785 | 1.38298 | 1.37827 | – | – | –
[2], x2 = 0.8 | – | – | – | 1.38377 | 1.37896 | 1.37432 | – | – | –
[2], x2 = 0.85 | – | – | – | 1.37933 | 1.37459 | 1.37001 | – | – | –
[2], x2 = 0.9 | – | – | – | 1.37449 | 1.36985 | 1.36536 | – | – | –
[2], x2 = 0.95 | – | – | – | 1.36921 | 1.36474 | 1.36042 | – | – | –
